Source: PMC8277133, “Os(II)-Bridged Polyarginine Conjugates: The Additive Effects of Peptides in Promoting or Preventing Permeation in Cells and Multicellular Tumor Spheroids” (Inorganic Chemistry, 2021)
Where a SMILES comes first, the peptide text is derived from it. [ ]: non-standard residue; d: D form. The star is where a group is joined. X1 = O=C(c1ccc(-c2cc(-c3ccccn3)nc(-c3ccccn3)c2)cc1)*; Ahx = NCCCCCC(=O)O

Experiments:
CHO cells [1] = assay: Confocal laser scanning microscopy uptake study in live CHO cells; type: cell-based, Chinese hamster; settings: CLSM; for Cellular uptake / membrane permeation: live CHO cells, 24 h, 37 °C
Protocol: (§1) Two cell lines were studied: an adherent mammalian cell line, Chinese hamster ovarian (CHO–K1), and a lung carcinoma cancer cell line (A549). Dulbecco’s modified Eagle’s medium (DMEM)/Hams F-12 was used for CHO cells and DMEM for A549 cells. Both media were supplemented with 10% FBS and 1% penicillin–streptomycin. The cells were grown at 37 °C with 5% CO2 and sub-cultured at 90% confluency.
(§2) Uptake studies were carried out for A549 and CHO cell lines. Cells were seeded at 1.5 × 10^5 cells in 35 mm glass-bottom culture dishes (Ibidi, Germany). Cells were allowed to grow for 24 h at 37 °C with 5% CO2. […] The dye/media solution was removed, and cells were washed twice with supplemented phosphate-buffered saline (PBS, 1.1 mM MgCl2 and 0.9 mM CaCl2). Cells were directly imaged using a Leica TSP DMi8 confocal microscope (63× oil immersion objective lens unless stated otherwise) with a heated stage at 37 °C.
(§3) [Os-(Rn)2]^x+ (n = 4 and 8; x = 10^+ and 18^+) was excited using a 490 nm white light laser, and the emission range was set to be between 650 and 800 nm. DRAQ7, a nuclear staining dye, was added (3 μM) to distinguish intact live cells from permeabilized/dead cells. The 633 nm laser was used to excite DRAQ7, and emission was collected between 635 and 750 nm. For co-localization studies, MitoTracker Deep Red (100 nM) and LysoTracker Green (50 nM) were used to selectively stain mitochondria and lysosomes, respectively. MitoTracker Deep Red was excited at 644 nm and emission was collected between 655 and 720 nm, and LysoTracker Green was excited at 504 nm and emission was collected at 511 nm.

cell membrane = settings: parent complex without peptide; as reported previously; cited from earlier work
Protocol: Uptake of the Os(II) bis-octaarginine conjugate was studied in live A549 lung carcinoma and a non-cancerous CHO cell line. […] The conjugate remained as impermeable to the cell membrane as the parent Os(II) complex at 30 μM/24 h and 100 μM/24 h (Figure S12).

HPAC spheroids [2] = assay: Confocal imaging of penetration into live HPAC multicellular tumor spheroids; type: cell-based, human; settings: for Spheroid penetration / accumulation: 100 μM, 48 h, confocal microscopy, no permeant
Protocol: The human pancreatic cancer cell line (HPAC) was cultured in Gibco Roswell Park Memorial Institute medium supplemented with 5% FBS at 37 °C with 5% CO2. HPAC cells were seeded at 2.5 × 10^3 cells/well of 96-well round-bottom plates pre-coated with poly-Hema (poly-2-hydroxyethyl methacrylate, Sigma). Cells were allowed to be compact and form 3D spheroid structures after 72 h.
Spheroids were treated with [Os-(R4)2]^10+ at 30 μM for 24 h and 100 μM for 24 and 48 h. Control spheroids were treated with the parent complex [Os(tpybenzCOOH)2]^2+ and [Os-(R8)2]^18+ at 100 μM for 48 h. Non-treated spheroids were also prepared as a negative control. Spheroids were co-stained with DAPI at 10 μM for 90 min. Each spheroid was collected individually and embedded in collagen in eight-well chamber slides, incubated for 90 min, and observed under confocal microscopy.
For imaging, HPAC spheroids were plated in collagen-treated eight-well chamber slides. HPAC spheroids were directly imaged from the eight-well chamber using a Leica TSP DMi8 confocal microscope (10× dry and 40× oil immersion objective). Z-scanning was used to acquire images across the z-axis of the spheroid sample. On average, 45–50 images were acquired at approximately 5 μm apart. 3D Z-stack images were used for spheroid reconstructions and 2D projection images are also reported. The Os(II) parent complex and bioconjugates were excited using a 490 nm white light laser, and the emission range was set to be between 650 and 800 nm (a false red color was used for the Os(II) channel). DAPI was excited at 405 nm, and emission was collected between 423 and 580 nm.

A549 cells [3] = assay: Confocal laser scanning microscopy uptake study in live A549 cells; type: cell-based; settings: CLSM; for Cellular uptake / membrane permeation: live A549 cells, 24 h, 37 °C
Protocol: as §1, §2, §3

A549 cells [4] = assay: DRAQ7 co-staining for damaged/dead cells, A549; type: cell-based
Protocol: (§4) Uptake studies were carried out for A549 and CHO cell lines. Cells were seeded at 1.5 × 10^5 cells in 35 mm glass-bottom culture dishes (Ibidi, Germany). Cells were allowed to grow for 24 h at 37 °C with 5% CO2. The growth medium was removed, and a specific concentration of [Os-(Rn)2]^x+ (n = 4 and 8; x = 10^+ and 18^+) was added and allowed to incubate for 24 and 48 h at 37 °C with 5% CO2 in the dark. The dye/media solution was removed, and cells were washed twice with supplemented phosphate-buffered saline (PBS, 1.1 mM MgCl2 and 0.9 mM CaCl2). Cells were directly imaged using a Leica TSP DMi8 confocal microscope (63× oil immersion objective lens unless stated otherwise) with a heated stage at 37 °C.
as §3

HPAC spheroids [5] = assay: 3D spheroid viability, Alamar Blue; type: cell-based, human; settings: 100 μM, 24 and 48 h, relative to untreated controls, n=2
Protocol: The 3D spheroid viability was evaluated using Alamar Blue. Briefly, 2.5 × 10^3 cells were seeded in each well of a 96-well round-bottom plate pre-coated with poly-Hema. The cells were allowed to grow and form spheroids for 72 h. The spheroids were then treated with [Os-(R4)2]^10+ at 100 μM for 24 and 48 h. The Alamar Blue reagent at a concentration of 10% was added to each well and incubated for 5 h at 37 °C. Fluorescence was measured at 535/590 excitation/emission wavelengths on a plate reader (Biotek) using Gen4 software. Background fluorescence was measured by using a blank consisting of medium only. Percentage viability was calculated relative to untreated controls.

A549 cells [6] = assay: Phototoxicity under continuous 490 nm irradiation with DRAQ7; type: cell-based; settings: A549 cells pretreated 30 μM/24 h, DRAQ7, continuous 490 nm irradiation 0.84 μW/cm^2, 3 h
Protocol: DRAQ7 was added to live A549 cells treated with [Os-(R4)2]^10+ (30 μM/24 h). A group of cells were selected for continuous irradiation using 490 nm excitation (0.84 μW/cm^2). Emission was collected between 650 and 800 nm for [Os-(R4)2]^10+. The 633 nm laser was used to excite DRAQ7, and emission was collected between 635 and 750 nm. This was repeated for an untreated control sample exposed to continuous irradiation and stained with DRAQ7.

CHO cells [7] = assay: DRAQ7 co-staining for damaged/dead cells, CHO; type: cell-based, Chinese hamster; settings: 30 μM, 24 h
Protocol: as §4, §3

SMILES	Cellular uptake / membrane permeation (CHO cells [1]; 100 μM)	Cell membrane permeability (cell membrane)	Spheroid penetration / accumulation (HPAC spheroids [2])	Cellular uptake / membrane permeation (A549 cells [3]; 100 μM)	Cell permeation (CHO cells [1]; CHO cells, 30 μM/24 h)	Cellular uptake / membrane permeation (CHO cells [1]; 30 μM, dark)	Cell viability by DRAQ7 co-staining (A549 cells [4]; 30 μM, 24 h and 48 h)	Cytotoxicity by DRAQ7 co-staining (A549 cells [4]; 100 μM, 48 h)	Cell death by DRAQ7 co-staining (A549 cells [4]; 100 μM/24 h)	Spheroid viability (HPAC spheroids [5])	Staining at the center of the spheroid, at 72 ± 5 μm (HPAC spheroids [2]; 30 μM/24 h)	Spheroid penetration (HPAC spheroids [2]; 30 μM/24 h, 3D reconstruction depth coding)	Spheroid penetration (HPAC spheroids [2]; 100 μM/24 h)	Photo-induced toxicity (A549 cells [6])	Cellular damage by DRAQ7 co-staining (CHO cells [7])	Cell permeation at 4 °C (A549 cells [3]; A549 cells, 4 °C, 30 μM/24 h)	Cellular uptake / membrane permeation (A549 cells [3]; 30 μM, dark, exc 490 nm, em 650-800 nm)
O=C(O)c1ccc(-c2cc(-c3ccccn3)nc(-c3ccccn3)c2)cc1.O=C(O)c1ccc(-c2cc(-c3ccccn3)nc(-c3ccccn3)c2)cc1.[Os+2] [[Os(tpybenzCOOH)2]^2+, Os(II) [bis-(4′-(4-carboxyphenyl)-2,2′:6′,2″-terpyridine)]]	completely impermeable	cell membrane impermeable	no spheroid penetration or accumulation was observed	completely impermeable	–	–	–	–	–	–	–	–	–	–	–	–	–
N=C(N)NCCC[C@@H](NC(=O)[C@@H](CCCNC(=N)N)NC(=O)[C@@H](CCCNC(=N)N)NC(=O)[C@@H](CCCNC(=N)N)NC(=O)CCCCCNC(=O)c1ccc(-c2cc(-c3ccccn3)nc(-c3ccccn3)c2)cc1)C(N)=O [[Os-(R4)2]^10+] ({X1-Ahx}-[dR][dR][dR][dR]-NH2)	–	–	throughout cell layers and deep into the spheroid core	–	inhibited	rapidly and efficiently internalized	remained viable	modest cytotoxic effects	no cell death was induced	no evidence of toxicity	not observed	spheroid penetration was evident	extensive probe penetration and distribution to the core of the spheroid	non-photocytotoxic	entry of DRAQ7 (blue) in several cell nuclei	inhibited	rapidly and efficiently internalized
